# Test results as given in publication PMC3058180 (Journal of pharmaceutical sciences, 2010).
# Experiments:
# A/Wuhan/359/95 (H3N2) = assay: microbe, parasite or virus in culture; format: cell-based; conditions: Influenza A virus, H3N2, MDCK, read-out: IC50 (nM of Zanamivir)
# [1] = test system: A/turkey/MN/833/80 (H4N2); assay: microbe, parasite or virus in culture; format: cell-based; conditions: Influenza A virus, H4N2, MDCK, read-out: IC50 (nM of Zanamivir)
smiles,measurement,setting,value
"CC(=O)N[C@H]1[C@H]([C@H](O)[C@H](O)CO)OC(C(=O)O)=C[C@@H]1N=C(N)N [compound 1, Zanamivir]",IC50,A/Wuhan/359/95 (H3N2),23000 nM
same,IC50,[1],21000 nM
